Laboratory results from patent US20220372014A1, “NEUROPROTECTIVE COMPOUNDS AND METHODS OF USE THEREOF” (The Johns Hopkins University, priority 2019, published 2022).

How the values were obtained:
MIF = biological target: T1, MIF (Homo sapiens, UniProt P14174); assay: Nuclease assay of Example 3 (MIF inhibitory activity, Table 4); format: biochemical; design: (%) inhibition of MIF nuclease activity: concentration or dose not given beside the values; details: nuclease assay of Example 3
T1 sequence (P14174 1-115): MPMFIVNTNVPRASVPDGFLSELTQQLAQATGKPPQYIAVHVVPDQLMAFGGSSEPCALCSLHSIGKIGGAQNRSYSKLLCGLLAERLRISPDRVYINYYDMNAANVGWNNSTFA
Procedure, shortened: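 Human genomic DNA (200 ng), pcDNA (200 ng) or PS^30-type substrates (1 μM) were incubated with MIF (0.25-8 μM final) in 10 mM Tris-HCl pH 7.0, 10 mM MgCl2, 1 mM DTT at 37 °C for 1 h (pcDNA, small substrates) or 4 h (genomic DNA). Cleavage was assessed by agarose or PAGE electrophoresis with EtBr staining and chemiluminescent detection of biotin-labelled DNA.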

[1] = system: HeLa cells or neuronal cells; assay: Cell death assay of Example 3 (MNNG, alamarBlue; protection against parthanatos, Table 4); format: cell-based; details: 1 μM test compound, MNNG-induced cell death, alamarBlue
Procedure, shortened: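 HeLa or neuronal cells (1×10^4/well) were pretreated 1 h at 37° C with 1 μM compound, exposed to MNNG for 15 min, washed, then re-incubated 18 h with 1 μM compound. Viability was read by alamarBlue fluorescence (ex 560/em 590 nm). Cell death was expressed relative to control wells.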

Row | SMILES | (%) inhibition of MIF nuclease activity (MIF) [%] | (%) inhibition of cell death [1] [%]
1 | COc1cc(CC[C@H]2OC(=O)[C@@H]3CCCCN3C(=O)C(=O)C(C)(C)COC(=O)C=CCCN(C)C(=O)[C@@H]3CCCN3C(=O)[C@H](COC(C)(C)C)N(C)C(=O)C(c3ccccc3)NC(=O)[C@H](C)N(C)C(=O)COc3cccc2c3)cc(F)c1OC (some centres unmarked) [compound 111] | 6.8 | 48.9
2 | COc1ccc(CC[C@H]2OC(=O)[C@@H]3CCCCN3C(=O)C(=O)C(C)(C)COC(=O)C=CCCN(C)C(=O)[C@H](CC3CCCCC3)NC(=O)[C@H](C(C)C)N(C)C(=O)[C@@H](Cc3ccccc3)NC(=O)[C@H](CC(C)C)N(C)C(=O)CCC(=O)Nc3cccc2c3)cc1OC [compound 87] | 17.1 | 51.3
3 | COc1ccc(CC[C@H]2OC(=O)[C@@H]3CCCCN3C(=O)C(=O)C(C)(C)COC(=O)C=CCCN(C)C(=O)[C@@H]3CCCN3C(=O)[C@H](COC(C)(C)C)N(C)C(=O)[C@H](Cc3ccc(O)cc3)N(C)C(=O)[C@H](C)NC(=O)COc3cccc2c3)cc1OC [compound 141] | 9.2 | 46.8
4 | COCC[C@@H]1NC(=O)[C@H](COC(C)(C)C)N(C)C(=O)C(c2ccccc2)NC(=O)[C@H](C)N(C)C(=O)COc2cccc(c2)[C@@H](CCc2ccc(OC)c(OC)c2)OC(=O)[C@@H]2CCCCN2C(=O)C(=O)C(C)(C)COC(=O)C=CCCN(C)C1=O (some centres unmarked) [compound 50] | 18.0 | 56.4
5 | COc1ccc(CC[C@H]2OC(=O)[C@@H]3CCCCN3C(=O)C(=O)C(C)(C)COC(=O)C=CCCN(C)C(=O)[C@@H](CC(C)C)NC(=O)[C@H](C(C)C)N(C)C(=O)[C@@H](Cc3ccccc3)NC(=O)[C@H](CC(C)C)N(C)C(=O)CCC(=O)Nc3cccc2c3)cc1OC [compound 82] | 8.5 | 47.0
6 | COc1ccc(CC[C@H]2OC(=O)[C@@H]3CCCCN3C(=O)C(=O)C(C)(C)COC(=O)C=CCCN(C)C(=O)[C@H](Cc3ccccc3)NC(=O)[C@H](C(C)C)N(C)C(=O)[C@@H](Cc3ccccc3)NC(=O)[C@H](CC(C)C)N(C)C(=O)CCC(=O)Nc3cccc2c3)cc1OC [compound 83] | 12.0 | 49.8
7 | COc1ccc(CC[C@H]2OC(=O)[C@@H]3CCCCN3C(=O)C(=O)C(C)(C)COC(=O)C=CCCN(C)C(=O)[C@H](C(C)C)NC(=O)[C@H](COC(C)(C)C)N(C)C(=O)[C@H](Cc3ccc4ccccc4c3)NC(=O)[C@H](C)N(C)C(=O)COc3cccc2c3)cc1OC [compound 29] | 12.4 | 57.8
8 | COc1ccc(CC[C@H]2OC(=O)[C@@H]3CCCCN3C(=O)C(=O)C(C)(C)COC(=O)C=CCCN(C)C(=O)[C@H](Cc3ccccc3)NC(=O)[C@H](Cc3ccccc3)N(C)C(=O)[C@@H](C)NC(=O)CN(C)C(=O)COc3cccc2c3)cc1OC [compound 68] | 44.0 | 58.0
9 | COc1ccc(CC[C@H]2OC(=O)[C@@H]3CCCCN3C(=O)C(=O)C(C)(C)COC(=O)C=CCCN(C)C(=O)[C@@H]3CCCN3C(=O)[C@H](COC(C)(C)C)N(C)C(=O)C(c3ccccc3)NC(=O)[C@H](C)N(C)C(=O)COc3cccc2c3)cc1 (some centres unmarked) [compound 151] | 6.8 | 45.7
10 | COc1ccc(CC[C@H]2OC(=O)[C@@H]3CCCCN3C(=O)C(=O)C(C)(C)COC(=O)C=CCCN(C)C(=O)CNC(=O)[C@H](COC(C)(C)C)N(C)C(=O)C(c3ccccc3)NC(=O)[C@H](C)N(C)C(=O)COc3cccc2c3)cc1OC (some centres unmarked) [compound 46] | 21.7 | 52.5
11 | COc1ccc(CC[C@H]2OC(=O)[C@@H]3CCCCN3C(=O)C(=O)C(C)(C)COC(=O)C=CCCN(C)C(=O)[C@H](CC(C)C)NC(=O)[C@H](COC(C)(C)C)N(C)C(=O)C(c3ccccc3)NC(=O)CN(C)C(=O)COc3cccc2c3)cc1OC (some centres unmarked) [compound 36] | 18.5 | 51.0
12 | COc1ccc(CC[C@H]2OC(=O)[C@@H]3CCCCN3C(=O)C(=O)C(C)(C)COC(=O)C=CCCN(C)C(=O)[C@@H]3CCCN3C(=O)[C@H](COC(C)(C)C)N(C)C(=O)C(c3ccccc3)N(C)C(=O)[C@H](C)NC(=O)COc3cccc2c3)cc1OC (some centres unmarked) [compound 137] | 9.4 | 44.5
13 | COc1ccc(CC[C@H]2OC(=O)[C@@H]3CCCCN3C(=O)C(=O)C(C)(C)COC(=O)C=CCCN(C)C(=O)[C@H](Cc3ccc4ccccc4c3)NC(=O)[C@H](COC(C)(C)C)N(C)C(=O)[C@H](Cc3ccc4ccccc4c3)NC(=O)[C@H](C)N(C)C(=O)COc3cccc2c3)cc1OC [compound 28] | 66.6 | 69.6
14 | COc1ccc(CC[C@H]2OC(=O)[C@@H]3CCCCN3C(=O)C(=O)C(C)(C)COC(=O)C=CCCN(C)C(=O)[C@H](Cc3ccc(F)cc3)NC(=O)[C@H](C(C)C)N(C)C(=O)[C@@H](Cc3ccccc3)NC(=O)[C@H](CC(C)C)N(C)C(=O)CCC(=O)Nc3cccc2c3)cc1OC [compound 85] | 10.7 | 49.4
15 | CCC[C@@H]1NC(=O)[C@H](Cc2ccccc2)N(C)C(=O)[C@@H](C)NC(=O)CN(C)C(=O)COc2cccc(c2)[C@@H](CCc2ccc(OC)c(OC)c2)OC(=O)[C@@H]2CCCCN2C(=O)C(=O)C(C)(C)COC(=O)C=CCCN(C)C1=O [compound 64] | 27.2 | 52.3
16 | COc1ccc(CC[C@H]2OC(=O)[C@@H]3CN(C)CCN3C(=O)C(=O)C(C)(C)COC(=O)C=CCCN(C)C(=O)[C@@H]3CCCN3C(=O)[C@H](COC(C)(C)C)N(C)C(=O)C(c3ccccc3)NC(=O)[C@H](C)N(C)C(=O)COc3cccc2c3)cc1OC (some centres unmarked) [compound 118] | 9.0 | 50.8
17 | COc1ccc(CC[C@H]2OC(=O)[C@@H]3CCCCN3C(=O)C(=O)C(C)(C)COC(=O)C=CCCN(C)C(=O)[C@H](Cc3ccc4ccccc4c3)NC(=O)[C@H](C(C)C)N(C)C(=O)[C@@H](Cc3ccccc3)NC(=O)[C@H](CC(C)C)N(C)C(=O)CCC(=O)Nc3cccc2c3)cc1OC [compound 88] | 21.3 | 52.7
18 | COc1ccc(CC[C@H]2OC(=O)[C@@H]3CCCCN3C(=O)C(=O)C(C)(C)COC(=O)C=CCCN(C)C(=O)[C@@H](C)NC(=O)[C@H](COC(C)(C)C)N(C)C(=O)[C@@H](CC(C)C)NC(=O)CN(C)C(=O)COc3cccc2c3)cc1OC [compound 3] | 21.0 | 40.6
19 | COc1ccc(CC[C@H]2OC(=O)[C@@H]3CCCCN3C(=O)C(=O)C(C)(C)COC(=O)C=CCCN(C)C(=O)[C@@H](C)NC(=O)[C@H](COC(C)(C)C)N(C)C(=O)C(c3ccccc3)NC(=O)[C@H](C)N(C)C(=O)COc3cccc2c3)cc1OC (some centres unmarked) [compound 48] | 61.5 | 49.2
20 | COc1ccc(CC[C@H]2OC(=O)[C@@H]3CCCCN3C(=O)C(=O)C(C)(C)COC(=O)C=CCCN(C)C(=O)[C@@H](Cc3ccccc3)NC(=O)[C@H](COC(C)(C)C)N(C)C(=O)[C@H](Cc3ccc4ccccc4c3)NC(=O)[C@H](C)N(C)C(=O)COc3cccc2c3)cc1OC [compound 24] | 40.3 | 57.4
21 | COc1ccc(CC[C@H]2OC(=O)[C@@H]3CCCCN3C(=O)C(=O)C(C)(C)COC(=O)C=CCCN(C)C(=O)[C@@H](CC(C)C)NC(=O)[C@H](COC(C)(C)C)N(C)C(=O)C(c3ccccc3)NC(=O)[C@H](C)N(C)C(=O)COc3cccc2c3)cc1OC (some centres unmarked) [compound 52] | 9.9 | 61.0
22 | COc1cc(O)c(CC[C@H]2OC(=O)[C@@H]3CCCCN3C(=O)C(=O)C(C)(C)COC(=O)C=CCCN(C)C(=O)[C@@H]3CCCN3C(=O)[C@H](COC(C)(C)C)N(C)C(=O)C(c3ccccc3)NC(=O)[C@H](C)N(C)C(=O)COc3cccc2c3)cc1OC (some centres unmarked) [compound 116] | −4.7 | 50.9
23 | COc1ccc(CC[C@H]2OC(=O)[C@@H]3CCCCN3C(=O)C(=O)C(C)(C)COC(=O)C=CCCN(C)C(=O)[C@@H]3CCCN3C(=O)[C@H](COC(C)(C)C)N(C)C(=O)[C@H](Cc3ccc(F)cc3)NC(=O)[C@H](C)N(C)C(=O)COc3cccc2c3)cc1OC [compound 103] | 16.8 | 22.5
24 | COc1cc(OC)c(OC)cc1CC[C@H]1OC(=O)[C@@H]2CCCCN2C(=O)C(=O)C(C)(C)COC(=O)C=CCCN(C)C(=O)[C@@H]2CCCN2C(=O)[C@H](COC(C)(C)C)N(C)C(=O)C(c2ccccc2)NC(=O)[C@H](C)N(C)C(=O)COc2cccc1c2 (some centres unmarked) [compound 122] | 10.7 | 64.3
25 | COc1ccc(CC[C@H]2OC(=O)[C@@H]3CCCCN3C(=O)C(=O)C(C)(C)COC(=O)C=CCCN(C)C(=O)[C@@H]3CCCN3C(=O)[C@H](COC(C)(C)C)N(C)C(=O)C(c3ccccc3)NC(=O)[C@H](Cc3ccc(O)cc3)N(C)C(=O)COc3cccc2c3)cc1OC (some centres unmarked) [compound 148] | 12.0 | 50.7
